What was measured:
[1] = system: reactive oxygen species (ROS) within cells; assay: CellROX Deep Red assay of cellular oxidative stress after H2O2 treatment; format: cell-based; details: for effect on CellROX fluorescence / oxidation (in words): 1 mM H2O2 for 30 min, then CellROX Deep Red, transfected cells in substrate-supplemented media, or supplemented media alone
Protocol: Cells were exposed to 1 mM H2O2 for 30 min before incubation with CellROX Deep Red. Blank: untransfected cells. F: ferulic acid-supplemented media. P: p-courmaric acid-supplemented media. pGL3: luciferase-encoding plasmid.
Additionally, the antioxidant potential of heterologously produced curcuminoids was investigated using CellROX Deep Red (Invitrogen, Carlsbad, Calif.), a fluorogenic probe for cellular oxidative stress. The cell-permeable CellROX dye is non-fluorescent in its reduced state but becomes highly fluorescent upon oxidation by reactive oxygen species (ROS) within cells. Cells were treated with 1 mM H2O2 to induce oxidative stress and subsequently incubated with CellROX before quantifying the resulting fluorescence (FIG. 11).

[2] = cited from earlier work
[3] = system: radiation-induced oral mucositis; assay: Syrian hamster model of radiation-induced oral mucositis; details: sustained presence of curcumin from in vivo biosynthesis, versus irradiated hamsters without treatment or with positive control; 60 Gy
From the text: Briefly, the hamster is anesthetized, the left cheek pouch is clamped between acrylic sheets to hold it in place, and each cheek pouch is exposed to 60 Gy total irradiation in a linear accelerator (LINAC). The use of the LINAC system provides gamma radiation exposure, is clinically relevant, and provides tight control of the radiation dose, reducing animal-to-animal exposure differences. For up to three weeks after irradiation, the hamsters is weighed daily and cheeks extracted to evaluate injury based on a well-established, validated scale (Table 2).
Equal numbers of male and female hamsters are randomly divided into groups (n=8). Negative controls comprise non-irradiated, non-treated; nonirradiated, treated; and irradiated, nontreated groups. […] The treatment groups are determined based on the curcuminoid production levels, bioavailability, and duration of production achievable in the in vivo systems described above. A preferred treatment is animals stably producing curcuminoids following AAV8-mediated transfection of liver and providing therapeutically relevant curcuminoid concentrations in circulation. The primary alternative is local AAV-mediated transfection of tissues in the cheek pouch. Another alternative approach is HEK293-ddCCM or HEK-CCM cells encapsulated in lysine/alginate spheres and implanted s.c. or i.p. in tissue cages.

[4] = in vivo; cited from earlier work

Compound: O=C(O)/C=C/c1ccc(O)cc1 [p-coumaric acid]
- effect on CellROX fluorescence / oxidation (in words) [1]: Neither the presence of p-coumaric acid nor ferulic acid, nor transfection with pGL3 (encoding luciferase), had any effect

Compound: COc1cc(/C=C/C(=O)CC(=O)/C=C/c2ccc(O)c(OC)c2)ccc1O [CCM, curcumin]
- half-life in plasma [2]: relatively short
- reduction in CellROX fluorescence ([1]; cells producing CCM from ferulic acid (4CL1/DCS/CURS1), 1 mM H2O2 for 30 min before CellROX Deep Red): 37%
- severity and duration of OM [3]: significantly reduces severity and duration of OM
- oral bioavailability [4]: ~1%

Compound: COc1cc(/C=C/C(=O)O)ccc1O [ferulic acid]
- effect on CellROX fluorescence / oxidation (in words) [1]: Neither the presence of p-coumaric acid nor ferulic acid, nor transfection with pGL3 (encoding luciferase), had any effect
